For one data set, the target named is human D2 receptor (Homo sapiens (Human), UniProt P14416). Put plainly: Radioligand binding ([3H]-spiperone) to human D2 receptor, HEK293 EBNA membranes. The following applies: HEK293 EBNA cells expressing human D2 receptor. As to the method:
(§1) HEK293 EBNA cells were transiently transfected with expression plasmids encoding for the human D2 or D3 or for the human 5-HT2A receptor, respectively. The cells were harvested 48 h post-transfection, washed three times with cold PBS and stored at −80° C. prior to use. The pellet was suspended in cold 50 mM Tris-HCl buffer containing 10 mM EDTA (pH 7.4) and was homogenized with a Polytron (Kinematica AG, Basel, Switzerland) for 20-30 sec at 12.000 rpm. After centrifugation at 48.000×g for 30 min at 4° C., the pellet was resuspended in cold 10 mM Tris-HCl buffer containing 0.1 mM EDTA (pH 7.4), homogenized, and centrifuged as above. This pellet was further resuspended in a smaller volume of ice cold 10 mM Tris-HCl buffer containing 0.1 mM EDTA (pH 7.4) and homogenized with a Polytron for 20-30 sec at 12.000 rpm. The protein content of this homogenate was determined with the Bio-Rad (Bradford) Protein Assay (Biorad Laboratories GmbH, München, Germany) according to the instructions of the manufacturer using gamma globulin as the standard. This homogenate was stored at −80° C. in aliquots and thawed immediately prior to use.
(§2) Aliquots of membrane preparations were thawed at RT, resuspended in assay buffer (D2, D3: 50 mM Tris-HCl, 120 mM NaCl, 5 mM MgCl2, 1 mM EDTA, 5 mM KCl, 1.5 mM CaCl2, pH=7.4; 5-HT2A: 50 mM Tris-HCl, 10 mM MgCl2, 1 mM EGTA, pH=7.4), homogenized with a Polytron for 20-30 sec at 12.000 rpm and adjusted to a final concentration of approximately 7.5 μg protein/well (D2, D3) and 15 μg protein/well (5-HT2A), respectively.
(§3) The binding affinity (Ki) of the compounds was determined using radioligand binding.
(§4) Membranes were incubated in a total volume of 200 μl with a fixed concentration of radioligand (final concentration approximately 0.7 nM [^3H]-spiperone for D2, 0.5 nM [^3 H]-spiperone for D3, and 1.1 nM [^3H]-ketanserin for 5-HT2A) and ten concentrations of test compound in ranging between 10 μM-0.1 nM for 1 h at RT. At the end of the incubation, the reaction mixtures were filtered on to unifilter 96-well white microplates with bonded GF/C filters (Packard BioScience, Zürich, Switzerland; preincubated for 1 h in 0.1% polyethylenimine (PEI) in assay buffer) with a Filtermate 196 harvester (Packard BioScience) and washed 3 times with cold assay buffer. The nonspecific binding was determined with equally composed reaction mixtures in the presence of 10 μM unlabelled spiperone. Per well 45 μl of Microscint 40 (Perkin Elmer, Schwerzenbach, Switzerland) was added, plates for sealed, shaken for 20 min and counted for 3 min on a Topcount Microplate Scintillation Counter (Canberra Packard SA, Zürich, Switzerland) with quenching correction.
(§5) The CPM value for each duplicate of a concentration of competing compound was averaged (y1), then the % specific binding was calculated according to the equation (((y1−non-specific)/(total binding−non-specific))×100). Graphs were plotted with the % specific binding using XLfit, a curve-fitting program that iteratively plots the data using Levenberg-Marquardt algorithm. The single site competition analysis equation used was y=A+((B−A)/(1+((x/C)D))), where y is the % specific binding, A is the minimum y, B is the maximum y, C is the IC50, x is the log 10 of the concentration of the competing compound and D is the slope of the curve (the Hill Coefficient). From these curves the IC50 (inhibition concentration at which 50% specific binding of the radioligand was displaced) and Hill coefficient were determined. The affinity constant (Ki) was calculated using the Cheng-Prusoff equation Ki=(IC50/1+([L]/Kd), where [L] is the concentration of radioligand and Kd is the dissociation constant of the radioligand at the receptor as determined by the saturation isotherm.

For another data set, the target named is human D3 receptor (Homo sapiens (Human), UniProt P35462). Description: Radioligand binding ([3H]-spiperone) to human D3 receptor, HEK293 EBNA membranes. The following applies: HEK293 EBNA cells expressing human D3 receptor. As to the method: as §1, §2, §3, §4, §5
Another data set has as its target human 5-HT2A receptor (Homo sapiens (Human), UniProt P28223). Put plainly: Radioligand binding ([3H]-ketanserin) to human 5-HT2A receptor, HEK293 EBNA membranes. The following applies: HEK293 EBNA cells expressing human 5-HT2A receptor. As to the method:
The ability of the compounds to bind to the 5-HT2A, D3 and D2 receptors was determined using radioligand binding to cloned receptors selectively expressed in HEK-293 EBNA cells.
as §1, §2, §3, §4, §5

Chain of human D2 receptor (P14416 whole entry): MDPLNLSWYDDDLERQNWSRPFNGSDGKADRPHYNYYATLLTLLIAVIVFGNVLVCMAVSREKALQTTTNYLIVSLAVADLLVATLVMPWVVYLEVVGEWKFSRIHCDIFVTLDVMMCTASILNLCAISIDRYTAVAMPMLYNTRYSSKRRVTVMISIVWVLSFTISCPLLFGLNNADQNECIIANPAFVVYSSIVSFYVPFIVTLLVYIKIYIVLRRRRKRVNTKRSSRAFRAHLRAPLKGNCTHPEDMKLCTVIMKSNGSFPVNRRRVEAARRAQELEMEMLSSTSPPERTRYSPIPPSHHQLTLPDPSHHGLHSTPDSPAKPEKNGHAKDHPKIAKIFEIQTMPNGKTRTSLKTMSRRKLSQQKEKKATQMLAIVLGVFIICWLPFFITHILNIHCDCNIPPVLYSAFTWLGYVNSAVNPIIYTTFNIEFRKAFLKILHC
Chain of human 5-HT2A receptor (P28223 whole entry): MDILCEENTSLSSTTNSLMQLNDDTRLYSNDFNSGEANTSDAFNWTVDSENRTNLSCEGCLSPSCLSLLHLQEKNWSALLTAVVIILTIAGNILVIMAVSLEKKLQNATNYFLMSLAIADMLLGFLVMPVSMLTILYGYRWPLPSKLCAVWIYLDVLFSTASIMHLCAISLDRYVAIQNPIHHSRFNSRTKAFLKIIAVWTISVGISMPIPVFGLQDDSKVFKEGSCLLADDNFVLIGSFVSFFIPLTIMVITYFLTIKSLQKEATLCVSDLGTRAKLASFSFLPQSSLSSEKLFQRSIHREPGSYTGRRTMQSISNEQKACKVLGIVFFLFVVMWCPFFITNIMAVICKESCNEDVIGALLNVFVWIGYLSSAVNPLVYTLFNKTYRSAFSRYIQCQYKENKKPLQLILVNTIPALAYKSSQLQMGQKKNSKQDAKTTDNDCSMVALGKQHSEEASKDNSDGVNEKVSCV
Chain of human D3 receptor (P35462 whole entry): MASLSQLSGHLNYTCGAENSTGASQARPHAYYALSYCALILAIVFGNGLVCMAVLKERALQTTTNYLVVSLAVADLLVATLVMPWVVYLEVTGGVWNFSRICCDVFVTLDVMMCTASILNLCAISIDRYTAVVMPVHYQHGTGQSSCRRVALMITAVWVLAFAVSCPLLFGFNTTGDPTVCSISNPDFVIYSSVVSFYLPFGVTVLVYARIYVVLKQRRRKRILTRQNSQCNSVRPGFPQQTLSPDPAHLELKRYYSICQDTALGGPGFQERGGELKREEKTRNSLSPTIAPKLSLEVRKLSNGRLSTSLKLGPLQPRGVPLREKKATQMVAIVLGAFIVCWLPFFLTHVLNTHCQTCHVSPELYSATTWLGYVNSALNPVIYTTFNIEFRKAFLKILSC

Usually Ki stands for a dissociation constant, usually derived from enzyme kinetics or from competition with a known ligand. As usually defined, the melting point is the temperature, or range, at which the solid turns liquid. For `O=C(N[C@H]1CC[C@H](CCN2CCC(c3coc4ccccc34)CC2)CC1)c1ccc2ncccc2c1` [Example 73, Quinoline-6-carboxylic acid trans-{4-[2-(4-benzofuran-3-yl-piperidin-1-yl)-ethyl]-cyclohexyl}-amide], the melting point was found to be 192 °C. Moreover, on human D2 receptor, the Ki was found to be 103 nM. Besides, the Ki at human D3 receptor came out at 2.42 nM. The Ki on human 5-HT2A receptor stood at 11 nM.

For the compound `O=C(N[C@H]1CC[C@H](CCN2CCC(c3coc4ccccc34)CC2)CC1)c1ccc(N2CCOCC2)nc1` [Example 65, trans-N-{4-[2-(4-Benzofuran-3-yl-piperidin-1-yl)-ethyl]-cyclohexyl}-6-morpholin-4-yl-nicotinamide], the melting point was 215 °C. In addition, the Ki at human D2 receptor was 51.8 nM. For the same compound, at human D3 receptor, the Ki was determined as 3.49 nM. For the same compound, the Ki on human 5-HT2A receptor stood at 7.56 nM.

In turn, `O=C(N[C@H]1CC[C@H](CCN2CCC(c3coc4ccccc34)CC2)CC1)c1ccnc2ccccc12` [Example 19, Quinoline-4-carboxylic acid trans-{4-[2-(4-benzofuran-3-yl-piperidin-1-yl)-ethyl]-cyclohexyl}-amide] gave a melting point of 169 °C. At human D2 receptor, the Ki turned out to be 96.7 nM. Moreover, on human D3 receptor, the Ki was 3.36 nM. On human 5-HT2A receptor, the Ki stood at 8.7 nM.

For `O=C(Cc1noc2ccccc12)N[C@H]1CC[C@H](CCN2CCC(c3coc4ccccc34)CC2)CC1` [Example 85, trans-2-Benzo[d]isoxazol-3-yl-N-{4-[2-(4-benzofuran-3-yl-piperidin-1-yl)-ethyl]-cyclohexyl}-acetamide], the melting point was determined as 175 °C. Moreover, the Ki on human D2 receptor is 245 nM. Besides, the Ki at human D3 receptor stood at 145 nM. For the same compound, the Ki at human 5-HT2A receptor came to 8.22 nM.

`CC(C)(C)c1ccc(S(=O)(=O)N[C@H]2CC[C@H](CCN3CCC(c4coc5ccccc45)CC3)CC2)cc1` [Example 88, trans-N-{4-[2-(4-Benzofuran-3-yl-piperidin-1-yl)-ethyl]-cyclohexyl}-4-tert-butyl-benzenesulfonamide] showed a melting point of 171 °C. In addition, the Ki on human D2 receptor was 70 nM. Also, on human D3 receptor, the Ki was 12.1 nM. For the same compound, at human 5-HT2A receptor, the Ki was found to be 31.5 nM.

Regarding `CC(C)(C)C(=O)N[C@H]1CC[C@H](CCN2CCC(c3coc4ccccc34)CC2)CC1` [Example 28, trans-N-{4-[2-(4-Benzofuran-3-yl-piperidin-1-yl)-ethyl]-cyclohexyl}-2,2-dimethyl-propionamide], the melting point was 157 °C. For the same compound, the Ki on human D2 receptor came out at 38 nM. In addition, the Ki on human D3 receptor is 12.7 nM. In addition, on human 5-HT2A receptor, the Ki stood at 6.05 nM.

For the compound `CC(C)CCC(=O)N[C@H]1CC[C@H](CCN2CCC(c3coc4ccccc34)CC2)CC1` [Example 45, 4-Methyl-pentanoic acid trans-{4-[2-(4-benzofuran-3-yl-piperidin-1-yl)-ethyl]-cyclohexyl}-amide], the melting point was found to be 179 °C. On human D2 receptor, the Ki was 66 nM. Further, at human D3 receptor, the Ki was determined as 2.9 nM. Further, at human 5-HT2A receptor, the Ki was 13.1 nM.

Compound `CC#CC(=O)N[C@H]1CC[C@H](CCN2CCC(c3coc4ccccc34)CC2)CC1` [Example 55, But-2-ynoic acid trans-{4-[2-(4-benzofuran-3-yl-piperidin-1-yl)-ethyl]-cyclohexyl}-amide] had a melting point of 161 °C. At human D2 receptor, the Ki amounted to 25.6 nM. Also, the Ki at human D3 receptor came to 2.09 nM. For the same compound, at human 5-HT2A receptor, the Ki amounted to 7.89 nM.

Compound `CC(C)=CC(=O)N[C@H]1CC[C@H](CCN2CCC(c3coc4ccccc34)CC2)CC1` [Example 53, 3-Methyl-but-2-enoic acid trans-{4-[2-(4-benzofuran-3-yl-piperidin-1-yl)-ethyl]-cyclohexyl}-amide] returned a melting point of 147 °C. Besides, the Ki on human D2 receptor amounted to 18 nM. On human D3 receptor, the Ki was 2.83 nM. Besides, on human 5-HT2A receptor, the Ki is 9.68 nM.

`O=C(N[C@H]1CC[C@H](CCN2CCC(c3coc4ccccc34)CC2)CC1)C1CCC1` [Example 20, Cyclobutanecarboxylic acid trans-{4-[2-(4-benzofuran-3-yl-piperidin-1-yl)-ethyl]-cyclohexyl}-amide] returned a melting point of 180 °C. The Ki at human D2 receptor was 38 nM. For the same compound, at human D3 receptor, the Ki turned out to be 1.85 nM. Also, the Ki on human 5-HT2A receptor worked out at 5.56 nM.

`O=C(N[C@H]1CC[C@H](CCN2CCC(c3coc4ccccc34)CC2)CC1)c1ccc(N2CCS(=O)(=O)CC2)cc1` [Example 66, trans-N-{4-[2-(4-Benzofuran-3-yl-piperidin-1-yl)-ethyl]-cyclohexyl}-4-(1,1-dioxo-1λ6-thiomorpholin-4-yl)-benzamide] returned a melting point of 269 °C. The Ki at human D2 receptor is 19.2 nM. The Ki on human D3 receptor was 3.4 nM. Moreover, on human 5-HT2A receptor, the Ki was 10.1 nM.

The compound `CC(C)(C)C1CCC(C(=O)N[C@H]2CC[C@H](CCN3CCC(c4coc5ccccc45)CC3)CC2)CC1` (stereo partly drawn) [Example 77, 4-tert-Butyl-cyclohexanecarboxylic acid trans-{4-[2-(4-benzofuran-3-yl-piperidin-1-yl)-ethyl]-cyclohexyl}-amide] gave a melting point of 199 °C. On human D2 receptor, the Ki turned out to be 345 nM. Moreover, the Ki on human D3 receptor was found to be 9.48 nM. Also, the Ki at human 5-HT2A receptor came to 6.03 nM.

On to `CCc1ccc(C(=O)N[C@H]2CC[C@H](CCN3CCC(c4coc5ccccc45)CC3)CC2)cc1` [Example 81, trans-N-{4-[2-(4-Benzofuran-3-yl-piperidin-1-yl)-ethyl]-cyclohexyl}-4-ethyl-benzamide], for which the melting point came to 192 °C. In addition, at human D2 receptor, the Ki is 204 nM. The Ki on human D3 receptor amounted to 1.33 nM. Moreover, the Ki on human 5-HT2A receptor amounted to 2.53 nM.

Turning to `COCC(=O)N[C@H]1CC[C@H](CCN2CCC(c3coc4ccccc34)CC2)CC1` [Example 6, trans-N-{4-[2-(4-Benzofuran-3-yl-piperidin-1-yl)-ethyl]-cyclohexyl}-2-methoxy-acetamide], the melting point came to 115 °C. In addition, on human D2 receptor, the Ki was found to be 80.1 nM. Further, on human D3 receptor, the Ki is 3.52 nM. For the same compound, the Ki on human 5-HT2A receptor is 3.36 nM.

In the case of `O=C(N[C@H]1CC[C@H](CCN2CCC(c3coc4ccccc34)CC2)CC1)c1ccc(-n2cccn2)cc1` [Example 59, trans-N-[4-{2-(4-Benzofuran-3-yl-piperidin-1-yl)-ethyl]-cyclohexyl}-4-pyrazol-1-yl-benzamide], the melting point came out at 205 °C. Also, the Ki on human D2 receptor was 46.9 nM. For the same compound, the Ki at human D3 receptor turned out to be 5.73 nM. Besides, at human 5-HT2A receptor, the Ki turned out to be 22.2 nM.

As for `O=C(CC1COCCO1)N[C@H]1CC[C@H](CCN2CCC(c3coc4ccccc34)CC2)CC1` (mixture of isomers) [Example 8, trans-N-{4-[2-(4-Benzofuran-3-yl-piperidin-1-yl)-ethyl]-cyclohexyl}-(RS)-2-[1,4]dioxan-2-yl-acetamide], the melting point is 172 °C. At human D3 receptor, the Ki turned out to be 2.02 nM. At human 5-HT2A receptor, the Ki worked out at 2.04 nM.

Compound `O=C(N[C@H]1CC[C@H](CCN2CCC(c3coc4ccccc34)CC2)CC1)C1CCOC1` (mixture of isomers) [Example 17, (RS)-Tetrahydro-furan-3-carboxylic acid trans-{4-[2-(4-benzofuran-3-yl-piperidin-1-yl)-ethyl]-cyclohexyl}-amide] yielded a melting point of 183 °C. In addition, at human D2 receptor, the Ki came to 53 nM. The Ki at human 5-HT2A receptor is 5.93 nM.

Values taken from patent US8921397B2, “Benzofurane-piperidine compounds” (Hoffmann-La Roche Inc., priority 2011, dated 2014).
